Assay results published in patent US9113629B2, “4-amino-6-(4-substituted-phenyl)-picolinates and 6-amino-2-(4-substituted-phenyl)-pyrimidine-4-carboxylates and their use as herbicides” (DOW AGROSCIENCES LLC, priority 2013, dated 2015).
Where two headings read alike, the source gives them in different places.

Columns and labels:
[1] = system: Key Grass and Sedge Weeds as well as Grass Crops; assay: Post-emergent Test II herbicidal activity (Table 6); assay type: in vivo; conditions: post-emergence, 336 h; for pest or weed control at 70 g/ha: application rate 70 g ai/ha; for pest or weed control at 140 g/ha: application rate 140 g ai/ha
Procedure, shortened: (§1)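 Spray rates: a highest rate plus ½×, ¼×, ⅛×, 1/16×, all delivered at 187 L/ha to plants at the first–second true leaf stage. Readout is a visual percent injury score at 14 d, where 100 means complete kill.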

[2] = system: Key Broadleaf Weed and Crop Species; assay: Post-emergent Test II herbicidal activity (Table 5); assay type: in vivo; conditions: post-emergence, 336 h, post-emergent, 14 days after application; for pest or weed control at 70 g/ha: 70 g ai/ha; for pest or weed control at 140 g/ha: 140 g ai/ha
Procedure, shortened: as §1

[3] = Triticum aestivum, TRZSS (wheat), read-out: Visual Growth Reduction (%) 14 Days After Application, TRZSS
[4] = CYPES: yellow nutsedge (Cyperus esculentus), read-out: Visual Growth Reduction (%) 14 Days After Application, CYPES
[5] = DIGSA: crabgrass (Digitaria sanguinalis), read-out: Visual Growth Reduction (%) 14 Days After Application, DIGSA
[6] = ECHCG: barnyardgrass (Echinochloa crus-galli), read-out: Visual Growth Reduction (%) 14 Days After Application, ECHCG
[7] = ORYSA: rice (Oryza sativa), read-out: Visual Growth Reduction (%) 14 Days After Application, ORYSA
[8] = SETFA: giant foxtail (Setaria faberi), read-out: Visual Growth Reduction (%) 14 Days After Application, SETFA
[9] = SORVU: grain sorghum (Sorghum vulgare), read-out: Visual Growth Reduction (%) 14 Days After Application, SORVU
[10] = ZEAMX: maize, corn (Zea mays), read-out: Visual Growth Reduction (%) 14 Days After Application, ZEAMX
[11] = ABUTH: velvetleaf (Abutilon theophrasti), read-out: Visual Growth Reduction (%) 14 Days After Application ABUTH
[12] = AMARE: redroot pigweed (Amaranthus retroflexus), read-out: Visual Growth Reduction (%) 14 Days After Application AMARE
[13] = BRSNN: oilseed-rape, canola (Brassica napus), read-out: Visual Growth Reduction (%) 14 Days After Application BRSNN
[14] = CHEAL: lambsquarters (Chenopodium album), read-out: Visual Growth Reduction (%) 14 Days After Application CHEAL
[15] = EPHHL: wild poinsettia (Euphorbia heterophylla), read-out: Visual Growth Reduction (%) 14 Days After Application EPHHL
[16] = HELAN: sunflower (Helianthus annuus), read-out: Visual Growth Reduction (%) 14 Days After Application HELAN
[17] = VIOTR: wild pansy (Viola tricolor), read-out: Visual Growth Reduction (%) 14 Days After Application VIOTR

| SMILES | pest or weed control at 70 g/ha [1, 3] | pest or weed control at 140 g/ha [1, 3] | pest or weed control at 70 g/ha [1, 4] | pest or weed control at 140 g/ha [1, 4] | pest or weed control at 70 g/ha [1, 5] | pest or weed control at 140 g/ha [1, 5] | pest or weed control at 70 g/ha [1, 6] | pest or weed control at 140 g/ha [1, 6] | pest or weed control at 70 g/ha [1, 7] | pest or weed control at 140 g/ha [1, 7] | pest or weed control at 70 g/ha [1, 8] | pest or weed control at 140 g/ha [1, 8] | pest or weed control at 70 g/ha [1, 9] | pest or weed control at 140 g/ha [1, 9] | pest or weed control at 70 g/ha [1, 10] | pest or weed control at 140 g/ha [1, 10] | pest or weed control at 70 g/ha [2, 11] | pest or weed control at 140 g/ha [2, 11] | pest or weed control at 70 g/ha [2, 12] | pest or weed control at 140 g/ha [2, 12] | also measured |
| --- | --- | --- | --- | --- | --- | --- | --- | --- | --- | --- | --- | --- | --- | --- | --- | --- | --- | --- | --- | --- | --- |
| COC(=O)c1nc(-c2ccc(OC(F)F)cc2)cc(N)c1Cl [Compound 23] | 0 to 29% | 0 to 29% | 45 to 59% | 75 to 84% | 75 to 84% | 75 to 84% | 85 to 94% | 95 to 100% | 0 to 29% | 0 to 29% | 0 to 29% | 45 to 59% | 85 to 94% | 95 to 100% | 0 to 29% | 0 to 29% | 95 to 100% | 95 to 100% | 95 to 100% | 95 to 100% | pest or weed control at 70 g/ha [2, 13]: 0 to 29%; pest or weed control at 140 g/ha [2, 13]: 0 to 29%; pest or weed control at 70 g/ha [2, 14]: 85 to 94%; pest or weed control at 140 g/ha [2, 14]: 95 to 100%; pest or weed control at 70 g/ha [2, 15]: 95 to 100%; pest or weed control at 140 g/ha [2, 15]: 95 to 100%; pest or weed control at 70 g/ha [2, 16]: 0 to 29%; pest or weed control at 140 g/ha [2, 16]: 85 to 94%; pest or weed control at 70 g/ha [2, 17]: 0 to 29%; pest or weed control at 140 g/ha [2, 17]: 0 to 29% |
| COC(=O)c1nc(-c2ccc(I)c(F)c2)nc(N)c1OC [Compound 27, Methyl 6-amino-2-(3-fluoro-4-iodophenyl)-5-methoxypyrimidine-4-carboxylate] | 45 to 59% | 45 to 59% | 0 to 29% | 95 to 100% | 0 to 29% | 0 to 29% | 0 to 29% | 0 to 29% | 0 to 29% | 0 to 29% | 0 to 29% | 0 to 29% | 0 to 29% | 30 to 44% | 0 to 29% | 0 to 29% | 60 to 74% | 75 to 84% | 60 to 74% | 75 to 84% | pest or weed control at 70 g/ha [2, 13]: 60 to 74%; pest or weed control at 140 g/ha [2, 13]: 60 to 74%; pest or weed control at 70 g/ha [2, 14]: 85 to 94%; pest or weed control at 140 g/ha [2, 14]: 85 to 94%; pest or weed control at 70 g/ha [2, 15]: 95 to 100%; pest or weed control at 140 g/ha [2, 15]: 95 to 100%; pest or weed control at 70 g/ha [2, 16]: 85 to 94%; pest or weed control at 140 g/ha [2, 16]: 85 to 94%; pest or weed control at 70 g/ha [2, 17]: 95 to 100%; pest or weed control at 140 g/ha [2, 17]: 95 to 100% |
| C#Cc1ccc(-c2nc(C(=O)OC)c(Cl)c(N)c2Cl)cc1 [Compound 34] | 60 to 74% | 60 to 74% | 60 to 74% | 60 to 74% | 0 to 29% | 45 to 59% | 0 to 29% | 0 to 29% | 0 to 29% | 0 to 29% | 75 to 84% | 85 to 94% | 30 to 44% | 45 to 59% | 60 to 74% | 60 to 74% | 95 to 100% | 95 to 100% | 95 to 100% | 95 to 100% | pest or weed control at 70 g/ha [2, 13]: 85 to 94%; pest or weed control at 140 g/ha [2, 13]: 95 to 100%; pest or weed control at 70 g/ha [2, 14]: 95 to 100%; pest or weed control at 140 g/ha [2, 14]: 95 to 100%; pest or weed control at 70 g/ha [2, 15]: 75 to 84%; pest or weed control at 140 g/ha [2, 15]: 85 to 94%; pest or weed control at 70 g/ha [2, 16]: 95 to 100%; pest or weed control at 140 g/ha [2, 16]: 95 to 100%; pest or weed control at 70 g/ha [2, 17]: 0 to 29%; pest or weed control at 140 g/ha [2, 17]: 0 to 29% |
| C#Cc1ccc(-c2nc(C(=O)O)c(C=C)c(N)c2F)cc1 [Compound 36] | 45 to 59% | 45 to 59% | 0 to 29% | 95 to 100% | 0 to 29% | 0 to 29% | 60 to 74% | 75 to 84% | 0 to 29% | 0 to 29% | 0 to 29% | 0 to 29% | 60 to 74% | 60 to 74% | 30 to 44% | 45 to 59% | 0 to 29% | 0 to 29% | 95 to 100% | 95 to 100% | pest or weed control at 70 g/ha [2, 13]: 0 to 29%; pest or weed control at 140 g/ha [2, 13]: 0 to 29%; pest or weed control at 70 g/ha [2, 14]: 85 to 94%; pest or weed control at 140 g/ha [2, 14]: 85 to 94%; pest or weed control at 70 g/ha [2, 15]: 95 to 100%; pest or weed control at 140 g/ha [2, 15]: 95 to 100%; pest or weed control at 70 g/ha [2, 16]: 85 to 94%; pest or weed control at 140 g/ha [2, 16]: 85 to 94%; pest or weed control at 70 g/ha [2, 17]: 0 to 29%; pest or weed control at 140 g/ha [2, 17]: 0 to 29% |
| COc1c(N)nc(-c2ccc(I)c(F)c2)nc1C(=O)O [Compound 37, 6-Amino-2-(3-fluoro-4-iodophenyl)-5-methoxypyrimidine-4-carboxylic acid] | 45 to 59% | 60 to 74% | 0 to 29% | 0 to 29% | 45 to 59% | 60 to 74% | 75 to 84% | 75 to 84% | 0 to 29% | 0 to 29% | 0 to 29% | 60 to 74% | 75 to 84% | 85 to 94% | 0 to 29% | 45 to 59% | 45 to 59% | 60 to 74% | 85 to 94% | 85 to 94% | pest or weed control at 70 g/ha [2, 13]: 95 to 100%; pest or weed control at 140 g/ha [2, 13]: 95 to 100%; pest or weed control at 70 g/ha [2, 14]: 95 to 100%; pest or weed control at 140 g/ha [2, 14]: 95 to 100%; pest or weed control at 70 g/ha [2, 15]: 95 to 100%; pest or weed control at 140 g/ha [2, 15]: 95 to 100%; pest or weed control at 70 g/ha [2, 16]: 85 to 94%; pest or weed control at 140 g/ha [2, 16]: 85 to 94%; pest or weed control at 70 g/ha [2, 17]: 95 to 100%; pest or weed control at 140 g/ha [2, 17]: 95 to 100% |
